Test results: US20090239285A1, “TANDEM REAPEAT DNA CONSTRUCTS PRODUCING PROTEINS THAT ATTACK PLANT PATHOGENIC VIRUSES, FUNGI, AND BACTERIA BY DISRUPTING TRANSCRIPTION FACTORS ESSENTIAL FOR REPLICATION THEREOF IN PLANTS” (priority 2008, published 2009)
Entries after “also recorded” stand apart in the source; their conditions may differ. Where two headings read alike, the source gives them in different places.

Columns and labels:
[1] = test system: mammalian retroviruses; conditions: millimolar concentrations, in vitro; cited from earlier work
[2] = test system: Mammalian rotaviruses; conditions: millimolar concentrations, in vitro; cited from earlier work
[3] = target: T1, Zn(HIV1-F1) zinc finger peptide (N-terminal CCHC region of the HIV-LA1 gag polyprotein) (Human immunodeficiency virus type 1 group M subtype B, UniProt P03348); assay: NMR studies of ligand binding by a zinc finger peptide from HIV-1; conditions: for binding to Zn(HIV1-F1): NMR spectroscopy, titration and NOESY
T1 construct: corresponds to the N-terminal CCHC region of the HIV-LA1 gag polyprotein (amino acids 390-470); made in house; host or cells: chemical synthesis (synthetic peptide)
Source text: The interaction between two of the ligands of this invention (Fusaric acid and picolinic acid) and their binding by a Zinc Finger Peptide from HIV-1 containing a zinc finger motif were studied by NMR spectroscopy (FIGS. 16, and 16.1-4).
The peptide sequence […], corresponds to the N-terminal CCHC region of the HIV-LA1 gag polyprotein (amino acids 390-470). The peptide containing the complex of zinc atom bound to the zinc finger domain of the peptide was named: Zn (HIV1-F1).
A synthetic oligonucleotide with sequence corresponding to a region of HIV-1 psi-packaging signal, d (ACGCC) was complexed with the peptide (South and Summers, 1993).Fusaric Acid [[…]] was denoted FSR-488 and picolinic acid [2-pyridine carboxylic acid] was denoted PCL-016. Interactions of FSR-488 and PCL-016 with the zinc finger peptide containing Zn [Zn(HIV1-F1)] were studied by NMR spectroscopy. […] Titration experiments with each of the two molecules caused shifts in the ^1H resonances of Zn(HIV1-F1) that are similar to those observed when the peptide binds analogs of its natural substrate. Two dimensional NOE correlation spectroscopy (NOESY) of the solution containing Zn(HIV1-F1) and FSR-488 gave cross peaks at frequencies that are consistent with contacts between FSR-488 and hydrogen nuclei in the hydrophobic cleft of the peptide.
A sample containing peptide (1.63 mM) and Zn^2+ (2 mM) was titrated with a solution of FSR-488. The experiment was monitored by one dimensional ^1H NMR spectroscopy. Under conditions in which the free zinc in the buffer was minimized, titrations with FSR-488 were conducted. Addition of FSR-488 yielded spectral shifts in the spectrum of the peptide (FIGS. 16, and 16.1-4). […] This experimental finding and conclusions led the inventors to run a second 2D NOESY experiment, this time at the higher concentration of FSR-488.
The NOESY spectrum at the high concentration of [FSR-488]. was considerable different than that measured at low concentrations of [FSR-488]. […] Interpretations for these assignments are presented in detailed below.

[4] = target: T2, recombinant MPS-1 (Homo sapiens, UniProt P42677); assay: Gel shift assay and radioactive Zn65 release from recombinant MPS-1; assay type: biochemical; conditions: for zinc dependent binding of recombinant MPS-1 to DNA: gel shift assays
T2 construct: made in house
Source text: MPS-1 is a ubiquitous tumor marker and cell growth stimulator and is described in detail in the inventors' U.S. Pat. No. 5,243,041. MPS-1 has one zinc finger domain of the type CCCC. […] This is detected by a change in the electrophoretic mobility of MPS-1 under non-denaturing conditions. These experiments indicate that picolinic acid and derivatives should remove zinc and denature various types of zinc finger, zinc ring proteins, or other types of ZF motifs whether known or heretofore undiscovered, including animal or plant viral proteins such as nucleocapsid proteins of retrovirus or the nucleocapsid proteins of Geminivirus. Furthermore, the inventors have determined that any chemical compound, whether known or heretofore undiscovered, that will remove the zinc (or other metal) and denature the proteins or that will form a ternary complex (protein-zinc-chelator) can be effective as an antiviral agent, with nontoxic effects, provided that the agent conforms with certain specific structural requirements.

[5] = test system: virus-infected host cells (HSV-1, HSV-2, HIV-1, Hepatitis C); assay: Fate of virus-infected host cells after treatment; assay type: cell-based; conditions: for fate of virus and host cells: HIV-1, Hepatitis C and numerous other viruses
Source text: Because DnaJ proteins are zinc finger proteins, these proteins can be neutralized and render non-functional by using picolinic acid and derivatives thereof. DnaJ is essential for protein-related cellular functions in both non-infected normal plant and animal cells. […] In contrast, in virally infected cells, picolinic acid and derivatives thereof have pronounced toxic effects which may include suppression of DnaJ proteins. Virally infected cells were killed by picolinic acid and derivatives thereof by apoptosis. In plant cells, this process is denoted as PCD.
APOPTOSIS. Apoptosis is a morphological pattern of cell injury and an important mode of cell death (Robbins, Pathological Basis of Disease, 1999, 6th Ed). Apoptosis shares and overlaps common mechanisms with necrosis. […] This form of cell death is designed to eliminate defective, unwanted and damaged cells. For example, the inventors have shown that cells infected by Herpes Simplex Virus 1 (HSV; labialis) and HSV-2 genitalis are destroyed together with the host cells that they infected by apoptosis when exposed to pyridine carboxylates (Fernandez-Pol, Anticancer Res. 2002). […] Thus, the inventors believes that when host cells of animals or plants are infected by pathogenic viruses, unless the treatment is extremely quickly, the host cells and the virus will be destroyed. In fact, host cells defective, mutated, and reservoirs for the novo synthesis of viruses are unwanted host cells and must be eliminated in many instances to allow the survival of the organism.

[6] = test system: virally-transformed cells; conditions: further incubation / longer exposure, all transformed cells; cited from earlier work
[7] = test system: NRK cells; conditions: cells treated with picolinic acid; cited from earlier work
[8] = test system: SV40 transformed BALB-3T3 cells; conditions: cited from earlier work
[9] = test system: Rice suspension cells and leaves; conditions: cited from earlier work; for hypersensitive response (HR): rice
[10] = test system: Arabidopsis thaliana; conditions: cited from earlier work
[11] = test system: iron incorporation into cells; conditions: cited from earlier work
[12] = test system: normal cells (NRK, BALB 3T3, WI-348); conditions: cited from earlier work
[13] = test system: normal cells (NRK, BALB 3T3, WI-348); assay: Control of growth by picolinic acid in normal cells; conditions: normal animal cells
Source text: Cells transformed (made cancerous) by different viruses that contain ZFP respond differently to picolinic acid. […] Numerous transformed cell lines (Fernandez-Pol, Proc. Natl. Acad. Sci. USA, 74:2889-2893, 1977) were exposed to PA and the points of arrest varied. […] Two important facts emerged from studies with transformed cell lines.

[14] = test system: Common ornamental plant cells infected by viruses; assay: Treatment of virus-infected ornamental plants with antiviral agents; conditions: viral strains not determined
[15] = test system: HSV-1; conditions: in tissue culture and in animals; cited from earlier work
[16] = test system: HSV-2; conditions: in tissue culture and in animals; cited from earlier work
[17] = test system: Orobanche ramose; conditions: Arabidopsis thaliana pre-treated with FU; cited from earlier work
[18] = test system: Arabidopsis thaliana; conditions: in vivo; cited from earlier work
[19] = test system: tomato spotted wilt virus; conditions: cited from earlier work

SMILES: O=C(O)CN(CCN(CC(=O)O)CC(=O)O)CC(=O)O [EDTA]
- viral integrity, measured by release of reverse transcriptase [1]: partial disintegration of viral membranes
- viral integrity [2]: partial disintegration of the viral membranes

SMILES: O=C(O)c1ccccn1 [Picolinic acid, 2-pyridine carboxylic acid]
- binding to Zn(HIV1-F1) [3]: bind Zn(HIV1-F1) at a hydrophobic cleft
- removal of zinc from CCCC zinc finger of MPS-1 [4]: remove radioactive Zn65; also recorded: remove zinc
- zinc dependent binding of recombinant MPS-1 to DNA [4]: inhibit
- fate of virus and host cells [5]: Death by apoptosis
- fate of virally infected cells ([5]; virally infected cells): killed
- toxicity in transformed cells [6]: cytotoxicity and cell death; also recorded: cell death by apoptosis
- potency of prostaglandin E1 in elevating cyclic AMP [7]: two to five times more potent
- mitochondrial effect ([8]; 3 mM picolinic acid): released cytochrome c
- cell death ([9]; Rice suspension cells and leaves): apoptosis
- reactive oxygen species (ROS) ([9]; rice suspension cells, Ca2+-dependent): induced reactive oxygen species (ROS)
- hypersensitive response (HR) [9]: elicits hypersensitive-like response
- hypersensitive response (HR) ([9]; listed as Alpha-picolinic acid): can elicit the hypersensitive response (HR)
- marker defense genes PR-1, PR-2 and PDF1.2 ([10]; dose-dependent and time dependent): all induced
- hypersensitive response (HR) ([10]; including oxidative burst and cell death): induced HR
- incorporation of iron into the cells [11]: inhibits incorporation of iron
- removal of radioiron from the cells [11]: effectively removes radioiron
- phase of cell cycle arrest ([12]; Normal rat kidney (NRK) cells): arrested in G1
- toxicity in normal cells [12]: no toxic effects
- suppression of DnaJ-like proteins [13]: did not lead to the suppression
- outcome of treatment of virus-infected ornamental plants [14]: positive results

SMILES: NC(=O)c1cccnc1 [Nicotinamide]
- effect on cell growth or apoptosis ([8]; at 48h): no effect
- morphology [8]: flatten

SMILES: CCCCc1ccc(C(=O)O)nc1 [Fusaric acid, 5-butyl picolinic acid]
- binding to Zn(HIV1-F1) [3]: bind Zn(HIV1-F1) at a hydrophobic cleft
- binding in one dimensional 1H NMR titration ([3]; peptide 1.63 mM, Zn2+ 2 mM, free zinc minimized): competitively binds both Zn^2+ and the Zn^2+/Peptide complex
- removal of zinc from CCCC zinc finger of MPS-1 [4]: remove radioactive Zn65; also recorded: remove zinc
- zinc dependent binding of recombinant MPS-1 to DNA [4]: inhibit
- fate of virus and host cells [5]: Death by apoptosis
- efficacy against viral infection [15]: effective
- efficacy against viral infection [16]: effective
- germination of parasite [17]: inhibited
- concentration eliciting plant defense responses without toxic effects [18]: 100 nM
- concentration reducing root growth and inducing membrane hyperpolarization then depolarization [18]: > 500 µM
- outcome of treatment of virus-infected ornamental plants [14]: positive results

SMILES: NC(=O)c1ncn([C@@H]2O[C@H](CO)[C@@H](O)[C@H]2O)n1 [Ribavirin]
- use against virus ([19]; tomato and tobacco plants): successfully used
- host in which most efficient ([19]; tomato versus tobacco): most efficient in tomato plants

SMILES: O=C(O)CN(CCOCCOCCN(CC(=O)O)CC(=O)O)CC(=O)O [EGTA]
- viral integrity, measured by release of reverse transcriptase [1]: partial disintegration of viral membranes
- viral integrity [2]: partial disintegration of the viral membranes
